# Data published in article PMC8610152, “Residue substitution enhances the immunogenicity of neoepitopes from gastric cancers” (Cancer Biology & Medicine, 2021).
# “Also recorded” adds a separate entry of the source.
# Experiments:
# [1] = system: naïve CD8+ T cells; experiment: CFSE proliferation of CD8+ T cells stimulated by neoepitope-loaded DCs; assay type: cell-based, human; details: DCs loaded with 10 µg/mL neoepitope, T cells:DCs 10:1, two rounds of 7 days, flow cytometry, mean ± SD
# Experimental: (§1) To elicit neoepitope-specific CD8^+ T cell responses, peripheral blood mononuclear cells (PBMCs) were isolated from healthy HLA-A0201 volunteer donors using lymphocyte separation medium (MP Biomedicals, Burlingame, CA, USA). This protocol was approved by the Ethics Committee of Fujian Cancer Hospital (Approval No. SQ2017-032-01). PBMCs were seeded into a 6-well plate and incubated for 2 h. Adherent cells were then induced to differentiate into dendritic cells (DCs) with 581 medium (Corning, NY, USA) in the presence of 100 ng/mL recombinant human GM-CSF (Mitenyi Biotec, Bergisch Gladbach, Germany) and 50 ng/mL recombinant human IL-4 (Mitenyi Biotec). DCs were sensitized with 10 µg/mL neoepitope, with a preparation without peptide serving as the control. After 24 h, 10 ng/mL IL-6 (Miltenyi Biotec), 10 ng/mL IL-1β (Miltenyi Biotec), 1 µg/mL CD40L (Miltenyi Biotec), and 10 ng/mL TNF-α (Mitenyi Biotec) were added for DC maturation. Next, naïve T cells were co-cultured for 7 days with DCs at a responder: stimulator ratio of 10:1. Medium was then replaced by half-fresh medium containing IL-2 (200 IU/mL, Jiangsu Kingsley Pharmaceutical, Nanjing, China) every 3 days. After another stimulation with neoepitope-loaded DCs for 7 days, CD8 MicroBeads (Mitenyi Biotec) were used to isolate positive CD8^+ T cells for subsequent experiments.
# The naïve CD8^+ T cells were adjusted to 1 × 10^7 cells/mL and subjected to carboxyfluorescein succinimidyl ester (CFSE; Invitrogen) staining. The CFSE concentration was 1 µg/mL. Naïve CD8^+ T cells were incubated at 37 °C in the dark for 5 min. CFSE-labeled naïve CD8^+ T cells were incubated in 5 times the volume of 581 medium containing 5% FBS (PAN-Seratech, Aidenbach, Germany) in the dark for 2.5 min, centrifuged at 1,500 rpm for 5 min, and resuspended in 581 medium. The naïve CD8^+ T cells were co-cultured with DCs with different neoepitopes at a ratio of 10:1 (naive CD8^+ T cells: 1 × 10^6 cells: DCs: 1 × 10^5 cells). After co-culturing with DCs with different neoepitopes for 2 consecutive times, 7 days for each time, T cells were stained with 20 µL PerCP-CD3 fluorescent antibody (BD Biosciences) and 5 µL APC-CD8 fluorescent antibody (BD Biosciences) in the dark for 30 min. The CFSE abundance on the surface of T cells was detected by flow cytometry to determine the proliferation of T cells.
# [2] = system: neoepitope-specific CTLs; experiment: Intracellular perforin staining of CTLs; assay type: cell-based, human; details: T cells:T2 cells loaded with wild-type neoepitopes 10:1, 24 h, brefeldin A 1 h, CD8+ gate, flow cytometry, mean ± SD of 3 independent experiments
# Experimental: as §1
# T cells and T2 cells loaded with wild-type neoepitopes were co-cultured at a ratio of 10:1 for 24 h, incubated in the presence of 5 µg/mL brefeldin A for 1 h, and washed with PBS once. The cells were stained with 20 µL PerCP-CD3 fluorescent antibody and 5 µL APC-CD8 fluorescent antibody in the dark for 30 min, followed by fixation with 100 µL Reagent A from a Intrasure Kit (BD Biosciences) in the dark for 5 min. Subsequently, the cells were permeabilized and stained with 50 µL Reagent B from the Intrasure Kit and 20 µL FITC-perforin fluorescent antibody (BD Biosciences) in the dark for 30 min. After washing with PBS once, the expression of perforin in T cells was detected by flow cytometry.
# [3] = biological target: T1, HLA-A0201 molecules on the T2 cell surface (Homo sapiens, UniProt P04439, D140Y/D185E/D98H/E176V/E277Q/G131W/G231S/I119V/I121R/I166T/I218V/L300P/L318F/N151K/N90K/P208A/P217A/Q86G/Q94H/R138H/R169H/T345S); experiment: T2 binding (affinity) assay; details: T2 cells 1 × 10^6 cells/well, 50 µg epitope + 3 µg β2M in 1 mL FBS-free RPMI1640, 37 °C, 18 h, PE-HLA-A2 antibody, flow cytometry, FI = (MFI epitope – MFI control)/MFI control, mean ± SD
# T1 construct: The MFI (mean fluorescence intensity) of HLA-A0201 molecules on the T2 cell surface was detected by flow cytometry; endogenous in cells; host or cells: T2 cells
# Experimental: The T2 cells were placed in a 24-well plate at a density of 1 × 10^6 cells/well; 50 µg epitope and 3 µg β2M (Merck, Kenilworth, NJ, USA) were then added and incubated in 1 mL fetal bovine free (FBS)-free RPMI1640 medium (Invitrogen, Carlsbad, CA, USA) at 37 °C for 18 h. T2 cells were washed twice with phosphate-buffered saline (PBS), treated with 20 µL PE-HLA-A2 fluorescent antibody (BD Biosciences, San Jose, CA, USA), incubated in the dark for 30 min, and then washed with PBS once. The MFI (mean fluorescence intensity) of HLA-A0201 molecules on the T2 cell surface was detected by flow cytometry (BD Biosciences). The formula used for calculating the fluorescence index was as follows: FI = (MFI of the epitope group – MFI of the control group)/MFI of the control group.
# [4] = biological target: T2, pMHC complex (neoepitope/HLA-A0201) on T2 cells (Homo sapiens, UniProt P04439, D140Y/D185E/D98H/E176V/E277Q/G131W/G231S/I119V/I121R/I166T/I218V/L300P/L318F/N151K/N90K/P208A/P217A/Q86G/Q94H/R138H/R169H/T345S); experiment: T2 stability assay of pMHC complex; assay type: binding; details: for DC50 (time required for 50% dissociation of the pMHC complex stabilized at t = 0 h): T2 cells, 50 µg epitope + 3 µg β2M 18 h, 5 µg/mL brefeldin A 1 h, then 0, 6, 12, 18, 24 h at 37 °C, PE-HLA-A2 flow cytometry; for Stability of pMHC complexes (dissociation rate over 0-24 h, Figure 2B): in words, mean ± SD of 3 independent experiments
# T2 construct: endogenous in cells; host or cells: T2 cells
# Experimental: T2 cells were cultured with 50 µg of each epitope peptide and 3 µg β2M for 18 h in 1 mL FBS-free RPMI1640 medium at 37 °C in a 24-well plate using 1 × 10^6 cells/well. T2 cells were then incubated with 5 µg/mL brefeldin A (Abcam, Cambridge, UK) at 37 °C for another 1 h after washing twice with PBS. […] The MFI of the HLA-A0201 molecules in T2 cells was detected by flow cytometry. The results are expressed as DC50, which is the time required for 50% dissociation of the pMHC complex stabilized at t = 0 h.
# [5] = system: neoepitope-specific CTLs; experiment: IFN-γ ELISA, CTLs co-cultured with target cells; assay type: cell-based, human; details: ELISA of supernatant; compared with CTLs stimulated by wild-type neoepitopes, P < 0.05
# Experimental: as §1
# (§2) The level of IFN-γ or TNF-α in the culture supernatants was detected using commercially available ELISA kits (Thermo Fisher Scientific, Waltham, MA, USA). Briefly, 96-well plates were coated with 100 µL/well capture antibody in coating buffer overnight. Plates were washed with wash buffer 3 times, 200 µL/well ELISA Diluent (1×) was added, and plates were incubated for 1 h. After washing with wash buffer twice, 100 µL/well of supernatants were added, incubated for 2 h, and washed with wash buffer 3 times, followed by addition of 100 µL/well antibodies against human IFN-γ/TNF-α. […] After incubation for 15 min, 100 µL/well stop solution was added to each well, and the optical density was measured using a microplate reader at 450 nm.
# [6] = system: T cells; experiment: IFN-γ ELISA, T cells co-cultured with neoepitope-loaded DCs; assay type: cell-based, human; details: ELISA of co-culture supernatant; compared with wild-type neoepitope, P < 0.05
# Experimental: as §1, §2
# [7] = system: T2 cells loaded with wild-type neoepitopes; experiment: LDH release cytotoxicity assay of neoepitope-specific CTLs; assay type: cell-based, human; details: effector/target 20:1, 10:1, 5:1, 4 h, 37 °C, compared with wild-type neoepitope-specific CTLs
# Experimental: as §1
# The amount of lactate dehydrogenase (LDH) released from target cells incubated with neoepitope-specific T cells was measured using the CytoTox 96® Non-Radioactive Cytotoxicity Assay Kit (Promega, Madison, WI, USA). T2 cells loaded with neoepitopes were used as target cells at 1 × 10^4 cells/well in 96-well plates. […] After adding stop solution at 50 µL/well, the plates were analyzed using a microplate reader at a wavelength of 490 nm. The killing percentage of antigen-specific T cells to T2 cells loaded with neoepitopes was calculated according to the following formula: killing percentage = (experimental release – target spontaneous release – effector spontaneous release)/(target maximum release – target spontaneous release) × 100%.
# [8] = system: neoepitope-specific CTLs; experiment: TNF-α ELISA, CTLs co-cultured with target cells; assay type: cell-based, human; details: ELISA of supernatant; compared with CTLs stimulated by wild-type neoepitopes, P < 0.05
# Experimental: as §1, §2
Sequence,Proliferation of specific CD8+ T cells [1],Perforin expression in CTLs [2],FI (fluorescence index) [3],DC50 (time required for 50% dissociation of the pMHC complex stabilized at t = 0 h) [4],IFN-γ released by CTLs co-cultured with target cells [5],IFN-γ secretion in T cells stimulated by DCs with neoepitopes [6],Cytotoxicity of neoepitope-specific CTLs on T2 cells loaded with wild-type neoepitopes [7],TNF-α released by CTLs co-cultured with target cells [8],"Stability of pMHC complexes (dissociation rate over 0-24 h, Figure 2B) [4]"
FIGITATVV [mutABCA2],12.53% ± 1.79%,29.87% ± 2.12%,3.32 ± 0.36,<18 h,–,–,–,–,–
FLGITATVV [mutABCA2L2],16.47% ± 1.59%,36.57% ± 2.01%,4.49 ± 0.42,>18 h,released more IFN-γ and TNF-α,more IFN-γ than the wild-type neoepitopes,killed a greater number of T2 cells loaded with wild-type neoepitopes,released more IFN-γ and TNF-α,higher than those of wild-type neoepitopes
PLLPVTCGV [mutSP140],18.87% ± 0.81%,44.70% ± 1.68%,3.79 ± 0.50,>24 h,–,–,–,–,–
SLIISVDGV [mutSTOML2],17.70% ± 1.14%,41.30% ± 1.76%,4.71 ± 0.41,>18 h,released more IFN-γ and TNF-α,more IFN-γ than the wild-type neoepitopes,killed a greater number of T2 cells loaded with wild-type neoepitopes,released more IFN-γ and TNF-α,higher than those of wild-type neoepitopes
SVIISVDGV [mutSTOM],14.03% ± 0.76%,35.53% ± 1.02%,4.27 ± 0.52,<18 h,–,–,–,–,–
YLLPVTCGV [mutSP140Y1],23.43% ± 1.17%,56.20% ± 1.28%,–,–,released more IFN-γ and TNF-α,more IFN-γ than the wild-type neoepitopes,killed a greater number of T2 cells loaded with wild-type neoepitopes,released more IFN-γ and TNF-α,higher than those of wild-type neoepitopes; also recorded: more stable than mutSP140
